From patent US20140271885A1, “COPOLYMERS FOR STABLE MICELLE FORMULATIONS” (Intezyne Technologies, Inc., priority 2013, published 2014) come the findings set out here.

For the data set the following is noted: rat, in vivo, iv, 10 mg/kg. Here is the method:
The delivery vehicle for drug administration was isotonic saline. Rat blood was collected from the catheter into K2-EDTA tubes […] at time points of 1, minute, 5 minutes, 15 minutes, 1 hour, 4 hours, 8 hours and 24 hours. Plasma was isolated by centrifugation at 1000 RPM for 5 minutes, and 150 uL of extraction solution (ice cold methanol/100 ng/mL daunorubicin internal standard) was added to 50 uL of each plasma sample. Samples were then vortexed for 10 minutes, centrifuged at 13,000 RPM for 10 minutes, and 150 uL of the supernatant is transferred to HPLC vials for analysis. […] A 5 μL sample injection was made onto a Waters 4 μm Nova Pak C18 (3.9×150 mm) at 30° C. with a flow rate of 0.750 mL per minute of 10 mM phosphate buffer (pH=1.4), methanol and acetonitrile (gradient from 70/10/20 to 40/10/50 for buffer/methanol/acetonitrile was made over eight minutes).

Turning to `COc1cccc2c1C(=O)c1c(O)c3c(c(O)c1C2=O)C[C@@](O)(C(C)=O)C[C@@H]3O[C@H]1C[C@H](N)[C@H](O)[C@H](C)O1` [Free Daunorubicin, daunorubicin], the “AUC (area under the concentration versus time curve, exposure of daunorubicin to the plasma compartment)” value is 1300 ng·h/mL and the “Half-life (terminal, elimination)” value is reported as 3.3 h.
